Patent US20100120738A1, “ANTI-APOPTOTIC BENZODIAZEPINE RECEPTOR LIGAND INHIBITORS” (priority 2006, published 2010)
Read-outs that look alike come from different tables or passages of the source.

How the values were obtained:
PC12 cells = assay: Protection against STS-induced apoptosis in PC12 cells (XTT viability assay); format: cell-based, rat
Description: Rat pheochromocytoma (PC12) cells were cultured in collagen-coated 96-well plates according to directions provided by the American Type Culture Collection. Staurosporine was added at various concentrations sufficient to induce apoptosis. Test compounds were added together with the staurosporine. Cells were incubated overnight at 37° C., 5% CO2. After 18-24 hours, test media was removed and cell viability was determined using the XTT viability assay described by Baker et al., J. Pharmacol. Exp, Therapeutics 284, 215-221, 1998, the contents of which are incorporated herein by reference.

[1] = test system: Bovine capillary endothelial cells; assay: Cytotoxicity/necrosis of non-irradiated cells (LDH release, field number); format: cell-based
Description: Bovine capillary endothelial cells were cultured on eight-chamber Labtek slides and exposed to ionizing radiation (20 Gy), which was calibrated using an X-ray exposure meter. […] In control experiments, cells either received no ionizing radiation (sham) or no compound. After 6 h incubation, the cells were fixed in methanol and stained with 5 μg/ml 4,6-diamidino-2-phenylindole (DAPI). DNA was visualized using a Nikon epifluorescence microscope, and apoptosis was scored and expressed as an apoptotic index (% apoptotic cells in a field of 100). […] Field number was also calculated for all other compounds tested as a control (results not shown).
To determine cytotoxicity of the compounds under these conditions, duplicate samples of the cells receiving a dose of compound at each concentration tested in the absence of a dose of ionizing radiation were assayed for release of LDH into the culture medium.

[2] = biological target: mitochondrial benzodiazepine receptor (mBzR) (Homo sapiens, UniProt P30536); assay: Inhibition of tritiated PK11195 binding to the receptor; conditions: read-out: Ki against the binding of PK11195
Sequence of mitochondrial benzodiazepine receptor (mBzR) (P30536 whole entry, species assumed): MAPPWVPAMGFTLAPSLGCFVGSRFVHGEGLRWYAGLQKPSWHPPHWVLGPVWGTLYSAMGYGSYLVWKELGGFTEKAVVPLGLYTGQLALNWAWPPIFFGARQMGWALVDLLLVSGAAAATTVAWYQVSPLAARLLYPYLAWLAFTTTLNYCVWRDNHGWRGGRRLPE
Description: Standard methods e.g., competition assays, are used to determine ge an inhibition, prevention or delay in binding of a ligand of a mitochondrial benzodiazepine receptor by a low molecular weight porphyrin derivative compound of the invention. As exemplified herein, labelled PK11195 compound is contacted with the receptor in the presence of different concentrations of a compound being tested and binding of the labelled PK11195 compound is determined. […] Preferably, the concentration of the compound being tested that inhibits binding of the ligand by 50% (i.e., […]) is determined.
FIG. 15 is a graphical representation showing the ability of the compounds {[{(Porphine-5,15-diyl)bis[cyclopropyl-diyl]}](2-)-N^21,N^22,N^23,N^24} manganese (III) acetate (EUK-418) and (5,10,15,20-Tetra ethylporphyrinato) manganese (III) acetate (EUK-425) to inhibit binding of tritiated PK11195 to the mitochondrial benzodiazepine receptor (mBzR). The Ki value for each compound is indicated.
FIG. 16 is a tabular representation showing a series of low molecular weight metalloporphyrin compounds designated EUK-418, EUK-423, EUK-424, EUK-425 and EUK-426, that inhibit ligand binding to the mitochondrial benzodiazepine receptor (mBzR) with moderate affinity, as determined by the Ki value (last column) for inhibition of tritiated PK11195, binding to the receptor. […]

[3] = test system: cultured mesencephalic tissue slices; assay: MPP+ induced neurodegeneration in cultured mesencephalic tissue slices (LDH release); format: cell-based, rat; conditions: 20 μM MPP+; for prevention of cytotoxicity induced by MPP+: compound 100 nM, 1.0 μM, 10 μM, FIG. 17
Description: FIG. 17 is a graphical representation showing the effects of exemplary low molecular weight metalloporphyrin compounds of the present invention on MPP+ induced neurodegeneration in cultured mesencephalic tissue slices. Mesencephalic tissue slices were prepared from PND 3-5 rats and maintained in culture for 2 weeks. The tissue slices were incubated with a porphyrin compound as indicated on the x-axis for 6 hours before adding 20 μM MPP+ to induce neuronal apoptosis. Concentrations of each porphyrin compound tested were 100 nM ? 1.0 μM ? and 10 μM ? Following a further incubation for 48 hours, the slices were collected and the level of lactate dehydrogenase (LDH) released into the medium was determined.

[4] = Stability in USP simulated gastric fluid (SGF); format: in vitro ADME; conditions: 37° C., pH approx. 1.2
Source text: Aliquots of SGF were withdrawn and intact compound quantitated by HPLC-UV.

[5] = Lipophilicity by octanol partitioning; format: physicochemical; conditions: for Log10 P value / P value (octanol partitioning coefficient): octanol-water
Description: To indicate the likelihood that the compounds will cross lipid membranes and be absorbed once administered by oral means, their lipophilicities were determined by octanol partitioning. […] Quantitation was performed by HPLC-UV.

[6] = Superoxide dismutase (SOD) activity; format: biochemical
[7] = test system: Bovine capillary endothelial cells; assay: Protection against radiation-induced apoptosis (DAPI apoptotic index); format: cell-based; conditions: for concentration providing protection from the apoptotic effects of ionizing radiation: DAPI staining, apoptotic index, 6 h
Description: Bovine capillary endothelial cells were cultured on eight chamber Labtek slides and exposed to ionizing radiation (20 Gy) for 6 hours. After this time, cells were either left untreated or treated with compound at the concentration indicated on the x-axis. Cells were then fixed in methanol and stained with 5 μg/ml DAPI and DNA was visualized using a Nikon epifluorescence microscope, and apoptosis scored and expressed as an apoptotic index according to the percentage of apoptotic cells in a field of 100 cells. Open bars indicate apoptotic index following irradiation. Hatched bars indicate apoptotic index for control cells not receiving a dose of ionizing radiation.
Bovine capillary endothelial cells were cultured on eight-chamber Labtek slides and exposed to ionizing radiation (20 Gy), which was calibrated using an X-ray exposure meter. […] In control experiments, cells either received no ionizing radiation (sham) or no compound. After 6 h incubation, the cells were fixed in methanol and stained with 5 μg/ml 4,6-diamidino-2-phenylindole (DAPI). DNA was visualized using a Nikon epifluorescence microscope, and apoptosis was scored and expressed as an apoptotic index (% apoptotic cells in a field of 100).

[8] = Plasma recovery after oral dose (another study); format: in vivo; conditions: 3.5 mg/kg dose administered orally; not shown
[9] = Oral bioavailability in vivo, plasma levels by LC-MS/MS after intragastric gavage; parameters: species or system rat; conditions: intragastric gavage, 4 mg/kg EUK-418 or 2 mg/kg EUK-423
Description: FIG. 18 is a graphical representation showing the bioavailability in vivo for the compounds {[{(Porphine-5,15-diyl)bis[cyclopropyl-diyl]}](2-)-N^21,N^22,N^23,N^24} manganese(III) acetate (EUK-418) and {[{(Porphine-5,15-diyl)bis[benzyl-diyl]}](2-)-N^21,N^22,N^23,N^24} manganese(III) acetate (EUK-423) in rats. Fasted and fed Sprague-Dawley rats were dosed by intragastric gavage with either 4 mg/kg EUK-418 or 2 mg/kg EUK-423. At the times indicated on the x-axis, plasma was obtained from the animals and the concentrations of compounds determined by LC-MS/MS.
Fasted and fed Sprague-Dawley rats were dosed by intragastric gavage with either 4 mg/kg EUK-418 or 2 mg/kg EUK-423. At time points up to 7 hr post-administration, animals were sacrificed, their blood collected over heparin, plasma samples prepared by centrifugation, and plasma levels of the compounds were determined by LC-MS/MS.

[10] = FIG. 12, at up to about 5 μM concentration, toxicity blunts protection at high concentrations
[11] = cuvette format, read-out: Cuvette IC50
[12] = microplate format, read-out: Microplate IC50
[13] = FIG. 12, among compounds tested

SMILES | effect on staurosporine-induced apoptosis of PC12 cells (PC12 cells; [10]) | prevention of cytotoxicity induced by MPP+ [3] | Percentage remaining after 90 mins in SGF [4] [%] | Log10 P value [5] | P value (octanol partitioning coefficient) [5] | IC50 [6, 11] [µM] | IC50 [6, 12] [µM] | also measured
CC(=O)[O-].CCc1c2nc(c(CC)c3ccc([n-]3)c(CC)c3nc(c(CC)c4ccc1[n-]4)C=C3)C=C2.[Mn+3] [EUK-425, (5,10,15,20-Tetraethylporphyrinato)manganese (III) acetate] | effectively reduce apoptosis | prevent cytotoxicity | 97.0 | 0.932 ± 0.006 | 8.56 ± 0.35 | 32.5 | 0.439 | necrosis at the doses tested ([1]; range of 0.5 μM to 100 μM, data therefore expressed as field number): necrosis was observed; Ki [2]: 0.027 µM; EC50 ([3]; LDH release, read-out: EC50 in MPP+ slice model): < 0.1 µM
C1=Cc2nc1cc1ccc([n-]1)c(C1CCCCC1)c1nc(cc3ccc([n-]3)c2C2CCCCC2)C=C1.[Cl-].[Mn+3] [EUK-452, {[{(Porphine-5,15-diyl)bis[cyclohexyl-diyl]}](2-)-N^21,N^22,N^23,N^24} manganese(III) chloride] | effectively reduce apoptosis |  | 98.2 | 1.973 ± 0.008 | 93.97 ± 1.67 | 20.1 | 9.05 | concentration providing protection from the apoptotic effects of ionizing radiation ([7]; 20 Gy): 3 µM; lipophilicity ([5]; octanol partitioning): most lipophilic
C1=Cc2nc1cc1ccc([n-]1)c(C1CCOCC1)c1nc(cc3ccc([n-]3)c2C2CCOCC2)C=C1.[Cl-].[Mn+3] [EUK-451, {[{(Porphine-5,15-diyl)bis[4-Tetrahydropyrano-diyl]}](2-)-N^21,N^22,N^23,N^24} manganese(III) chloride] | effectively reduce apoptosis |  | 100 | −0.660 ± 0.011 | 0.219 ± 0.005 | 29.1 | 2.39 | relative activity against STS-induced apoptosis (PC12 cells; [13]): highest activity; relative toxicity in PC12 model (PC12 cells; [13]): lowest toxicity; recovery from plasma [8]: recovered from plasma at low levels
CCCc1c2nc(cc3ccc([n-]3)c(CCC)c3nc(cc4ccc1[n-]4)C=C3)C=C2.[Cl-].[Mn+3] [EUK-453, {[{(Porphine-5,15-diyl)bis[propyl-diyl]}](2-)-N^21,N^22,N^23,N^24} manganese(III) chloride] | effectively reduce apoptosis |  | 98.4 | 0.619 ± 0.017 | 4.16 ± 0.16 | 60.9 | 2.3 | 
CC(=O)[O-].COc1ccc(-c2c3nc(cc4ccc([n-]4)c(-c4ccc(OC)cc4)c4nc(cc5ccc2[n-]5)C=C4)C=C3)cc1.[Mn+3] [EUK-450, {[{(Porphine-5,15-diyl)bis[benzene-1,4 diyl (4-methyl-oxy)]}](2-)-N^21,N^22,N^23,N^24} manganese(III) acetate] | effectively reduce apoptosis |  | 98.1 | 0.650 ± 0.010 | 4.46 ± 0.11 | 9.98 | 3.12 | 
CC(=O)[O-].CC(C)c1c2nc(c(C(C)C)c3ccc([n-]3)c(C(C)C)c3nc(c(C(C)C)c4ccc1[n-]4)C=C3)C=C2.[Mn+3] [EUK-424, (5,10,15,20-Tetraisopropylporphyrinato)manganese (III) acetate] |  | prevent cytotoxicity |  |  |  |  |  | 
CC(=O)O.CCOc1cccc(C=NCCN=Cc2cccc(OCC)c2O)c1O.[Mn] [EUK-189, reference compound] |  |  |  |  |  | 0.55 | 0.824 | 
C1=Cc2nc1cc1ccc([n-]1)c(-c1ccccc1)c1nc(cc3ccc([n-]3)c2-c2ccccc2)C=C1.CC(=O)[O-].[Mn+3] [EUK-423, {[{(Porphine-5,15-diyl)bis[benzyl-diyl]}](2-)-N^21,N^22,N^23,N^24} manganese(III) acetate] | effectively reduce apoptosis | prevent cytotoxicity | 91.2 | 0.907 ± 0.002 | 8.07 ± 0.10 | 17.3 | 4.1 | effect on staurosporine-induced apoptosis of PC12 cells (PC12 cells; FIG. 11): effectively reduce apoptosis; concentration providing protection from the apoptotic effects of ionizing radiation ([7]; 20 Gy): 3 to 10 µM; protection of cells exposed to ionizing radiation ([7]; about 3-10 μM compound, 20 Gy, p<0.006): approximately 87%; protection of cells exposed to ionizing radiation ([7]; low doses, FIG. 13 and FIG. 14): protected; necrosis at the protective concentration ([1]; 3 μM EUK-418, about 3-10 μM EUK-423): no detectable necrosis; concentration causing significant increase in field number for control cells, indicating cytotoxicity ([1]; control cells without ionizing radiation): ≥ 30 µM; plasma time course [9]: increased in plasma during the first four hour period; found in plasma / bioavailable after oral administration ([9]; fasted and fed rats): bioavailable in vivo
